Assay results reported in PubChem BioAssay AID2060484 (Molecular Pharmacology Branch, DTP, NCI, 2025).

Test system: SUM149PT spheroids with HUVEC/MSC, viability
Assay: Anticancer human tumor SUM149PT cell line growth inhibition [GQUAD];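 note: spheroids exposed to drugs for seven days before readout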;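 for viability, T/C: percent viability relative to DMSO vehicle control taken as 100%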
Conditions: for IC50: curve of first compound; for viability, T/C: stronger effect = lower value
Text: DNA G-quadruplex Stabilizer Agents in Combinations in Complex Spheroids
A high-throughput screen of multi-cell type tumor spheroids was designed to identify active combinations of DNA G-quadruplex stabilizer agents and targeted small molecules. Complex spheroids include a stromal component modeled by human endothelial cells (HUVEC) and fibroblasts modeled by human mesenchymal stem cells (MSCs). The concentration ranges selected for each drug and investigational agent were based upon clinically achievable concentrations if the clinical Cmax of the agent was known.
Compounds. The drugs and investigational agents: pidnarulex (CX-5461; NSC782164), APTO-253 (NSC789042), BRACO-19 (NSC847499), peposertib (NSC802822), ceralasertib (NSC780249), elimusertib (NSC800525), camonsertib (NSC841442), AZD-1390 (NSC803789), olaparib (NSC753686), talazoparib (NSC767125), ART-558 (NSC835418), sotorasib (NSC818433), MRTX-1133 (NSC836407), SN-38 (NSC673596), topotecan (NSC609699), etoposide (NSC141540), doxorubicin (NSC123127), gemcitabine (NSC613327), 5-fluorouracil (NSC19893), paclitaxel (NSC125973), vemurafenib (NSC761431), panobinostat (NSC761190), R-306465 (JNJ-16241199; NSC773264), adavosertib (NSC754352), TP-3654 (NSC805149), carboplatin (NSC241240), KSQ-4279 (NSC840948), and staurosporine (NSC755774) were obtained from the National Cancer Institute (NCI) Developmental Therapeutics Program Chemical Repository (34). The FDA-approved anticancer drug set is available from the NCI Developmental Therapeutics Program. […] The stock solutions were prepared in dimethyl sulfoxide (DMSO, Sigma-Aldrich, St. Louis, MO, cat. D2650) at 800-fold the tested concentration and stored at -70 degrees C prior to their use. All drugs and investigational agents were tested over a range starting from a high concentration at or near the clinical Cmax and decreasing in half-log increments. If the clinical Cmax for an agent had not been determined, the highest concentration tested was 10 microM.
2.3 Cell Culture. All cells were maintained in an incubator at 37 degrees C and 5% CO2 with 95% humidity. The PDC lines were cultured according to standard operating procedures established by the NCI PDMR. All PDCs were thawed and cultured in Matrigel-coated flasks prepared with a working solution of 1X Ham's F-12 nutrient mix, without supplementation (Invitrogen, cat. 11765054), 100 U/mL penicillin-streptomycin (Invitrogen, cat. 15140122), and 2.5% Matrigel (Corning Inc., cat. 354248) for the first three passages. The 857933-349-R-J2-PDC line was cultured in 6C/Colon 1B media, which includes advanced DMEM/F-12 (Thermo Fisher Scientific, cat. 12634028), 10 mM HEPES (Thermo Fisher Scientific, cat. 15630080), 1X GlutaMAX supplement (Thermo Fisher Scientific, cat. 35050061), 0.1 mg/mL primocin (InvivoGen, cat. ant-pm-2), 10% defined fetal bovine serum, heat inactivated (HyClone Laboratories Inc., cat. SH30070.03HI), 50% L-WRN conditioned media (ATCC, cat. CRL-3276), 1.25 mM N-Acetyl-L-cysteine (Sigma-Aldrich, cat. A9165), 10 mM nicotinamide (Sigma-Aldrich, cat. N0636), 1X B-27 supplement (Thermo Fisher Scientific, cat. 17504044), 1X N-2 supplement (Thermo Fisher Scientific, cat. 17502048), 10 microM Y-27632 dihydrochloride (Tocris Bioscience, cat. 1254), and 50 ng/mL human EGF recombinant protein (Thermo Fisher Scientific, cat. PHG0311). The 485176-168-R4-J1-PDC line was cultured in Panc media, which includes all 6C/Colon 1B media components plus 100 ng/mL human FGF-10 (Thermo Fisher Scientific, cat. 100-26), 500 nM SB-431542 (Selleckchem, cat. S1067), and gastrin (Tocris, cat. 3006).
[…]

[1] = second compound 0.0316 µM, first compound 0.0316 µM
[2] = second compound 0.0316 µM, first compound 0.1 µM
[3] = second compound 0.0316 µM, first compound 0.316 µM
[4] = second compound 0.0316 µM, first compound 1 µM
[5] = second compound 0.0316 µM, first compound 3.16 µM
[6] = second compound 0.0316 µM, first compound 10 µM
[7] = second compound 0.1 µM, first compound 0.0316 µM
[8] = second compound 0.1 µM, first compound 0.1 µM
[9] = second compound 0.1 µM, first compound 0.316 µM
[10] = second compound 0.1 µM, first compound 1 µM
[11] = second compound 0.1 µM, first compound 3.16 µM
[12] = second compound 0.1 µM, first compound 10 µM
[13] = second compound 0.316 µM, first compound 0.0316 µM
[14] = second compound 0.316 µM, first compound 0.1 µM
[15] = second compound 0.316 µM, first compound 0.316 µM
[16] = second compound 0.316 µM, first compound 1 µM
[17] = second compound 0.316 µM, first compound 3.16 µM
[18] = second compound 0.316 µM, first compound 10 µM
[19] = second compound 1 µM, first compound 0.0316 µM
[20] = second compound 1 µM, first compound 0.1 µM
[21] = second compound 1 µM, first compound 0.316 µM
[22] = second compound 1 µM, first compound 1 µM
[23] = second compound 1 µM, first compound 3.16 µM
[24] = second compound 1 µM, first compound 10 µM
[25] = second compound 3.16 µM, first compound 0.0316 µM
[26] = second compound 3.16 µM, first compound 0.1 µM
[27] = second compound 3.16 µM, first compound 0.316 µM
[28] = second compound 3.16 µM, first compound 1 µM
[29] = second compound 3.16 µM, first compound 3.16 µM
[30] = second compound 3.16 µM, first compound 10 µM
[31] = second compound 10 µM, first compound 0.0316 µM
[32] = second compound 10 µM, first compound 0.1 µM
[33] = second compound 10 µM, first compound 0.316 µM
[34] = second compound 10 µM, first compound 1 µM
[35] = second compound 10 µM, first compound 3.16 µM
[36] = second compound 10 µM, first compound 10 µM

`COc1ccc([C@@H](O)c2cc(-c3ncnc4cc(N5CCOCC5)ccc34)c(F)cc2Cl)nn1` + Cc1cnc(CNC(=O)c2c(=O)c3ccc(N4CCCN(C)CC4)nc3n3c2sc2ccccc23)cn1 showed an IC50 (second compound 0.0316 µM) of 385 nM, an IC50 (second compound 0.1 µM) of 142 nM and an IC50 (second compound 0.316 µM) of 61.1 nM. For the same molecule, the IC50 (second compound 1 µM) was less than 31.6 nM, the IC50 (second compound 3.16 µM) was less than 31.6 nM and the IC50 (second compound 10 µM) was less than 31.6 nM. The viability, T/C [1] was 88.4%, the viability, T/C [2] was 68.2% and the viability, T/C [3] was 55.8%. The viability, T/C [4] was 35.8%, the viability, T/C [5] was 24.5% and the viability, T/C [6] was 18.5%. The viability, T/C [7] was 65.8%, the viability, T/C [8] was 51.8% and the viability, T/C [9] was 44.1%. For the same molecule, the viability, T/C [10] was 25.5%, the viability, T/C [11] was 21.5% and the viability, T/C [12] was 16.3%. It also gave a viability, T/C [13] of 53%, a viability, T/C [14] of 48.2% and a viability, T/C [15] of 36%. For the same molecule, the viability, T/C [16] was 24.5%, the viability, T/C [17] was 19.2% and the viability, T/C [18] was 14.8%. For the same molecule, the viability, T/C [19] was 43.4%, the viability, T/C [20] was 38.9% and the viability, T/C [21] was 35.4%. It also gave a viability, T/C [22] of 23.2%, a viability, T/C [23] of 19.6% and a viability, T/C [24] of 15.7%. For the same molecule, the viability, T/C [25] was 34.5%, the viability, T/C [26] was 34.1% and the viability, T/C [27] was 29.4%. For the same molecule, the viability, T/C [28] was 20.7%, the viability, T/C [29] was 17.6% and the viability, T/C [30] was 13.3%. The viability, T/C [31] was 0.17%, the viability, T/C [32] was 1.03% and the viability, T/C [33] was 0.2%. For the same molecule, the viability, T/C [34] was 0.32%, the viability, T/C [35] was 1.7% and the viability, T/C [36] was 1.3%.

In the case of `CC(C)(O)C1CCC(Nc2ccc3ncc(-c4cccc(C(F)(F)F)c4)n3n2)CC1` (centres undefined) + CN(C)c1ccc(Nc2c3ccc(NC(=O)CCN4CCCC4)cc3nc3cc(NC(=O)CCN4CCCC4)ccc23)cc1, the IC50 (second compound 0.0316 µM) is reported as greater than 10000 nM, the IC50 (second compound 0.1 µM) is reported as greater than 10000 nM and the IC50 (second compound 0.316 µM) is reported as 1760 nM. It also gave an IC50 (second compound 1 µM) of 1550 nM, an IC50 (second compound 3.16 µM) of 1250 nM and an IC50 (second compound 10 µM) of 789 nM. It also gave a viability, T/C [1] of 98.7%, a viability, T/C [2] of 84.6% and a viability, T/C [3] of 75%. It also gave a viability, T/C [4] of 61.5%, a viability, T/C [5] of 53.6% and a viability, T/C [6] of 54.2%. For the same molecule, the viability, T/C [7] was 102%, the viability, T/C [8] was 92.8% and the viability, T/C [9] was 77.8%. The viability, T/C [10] was 58%, the viability, T/C [11] was 49.1% and the viability, T/C [12] was 54.3%. It also gave a viability, T/C [13] of 86.4%, a viability, T/C [14] of 89.2% and a viability, T/C [15] of 76.5%. For the same molecule, the viability, T/C [16] was 52.8%, the viability, T/C [17] was 44.7% and the viability, T/C [18] was 50%. The viability, T/C [19] was 89.6%, the viability, T/C [20] was 82% and the viability, T/C [21] was 78.2%. For the same molecule, the viability, T/C [22] was 57.3%, the viability, T/C [23] was 35.9% and the viability, T/C [24] was 42.2%. It also gave a viability, T/C [25] of 81.6%, a viability, T/C [26] of 78.6% and a viability, T/C [27] of 74.7%. For the same molecule, the viability, T/C [28] was 54.1%, the viability, T/C [29] was 33.8% and the viability, T/C [30] was 37.6%. For the same molecule, the viability, T/C [31] was 78.2%, the viability, T/C [32] was 73.1% and the viability, T/C [33] was 66.7%. The viability, T/C [34] was 47%, the viability, T/C [35] was 20.9% and the viability, T/C [36] was 18.3%.
